# Ends that are not written are not given here.
# How the values were obtained:
# CXCR4 = CXCR4 (Homo sapiens, UniProt P61073); experiment: CXCR4 internalization, confocal microscopy of HEK cells expressing EGFP-CXCR4; assay type: cell-based; design: expressed in transfected cells; host or cells: HEK293; details: 30 min, 37° C.
# Source text: Upon stimulation with the appropriate chemokine, numerous G-protein-coupled receptors get internalized by clathrin-coated pits. As an antagonist of CXCR4 responses, ALB 408-423 may also alter chemokine induced CXCR4 receptor internalization. To analyze the antagonistic properties of ALB408-423 on CXCL12 mediated CXCR4 internalization, EGFP-CXCR4 receptor expressing cells were split and grown for 2 days in 24-well plates on 12-mm glass coverslips coated with rat type I collagen. The cells were then incubated for periods ranging from 0 to 30 min in HEPES-BSA buffer supplemented with protease inhibitors containing either 100 nM CXCL12 or 50 μM of ALB408-423 or 100 nM CXCL12 plus 50 μM of ALB408-423 at 37° C. […] Cells were then analyzed with an inverted microscope (LEICA) and a laser scanning confocal imaging system (LEICA AOBS SP2 MP) using a HCX PL APO 1bd.BL 63X 1.40 OIL UV objective (n° 506192). […] EGFP was excited with the 488 nm laser-line of the Argon laser and detected and amplified by one photomultiplier tube (PMT) in the so-called mCFP Channel from 495 to 550 nm (PMT1 610 High Voltage -HV-, offset 0). […]
# FIG. 15. […] Receptor endocytosis was monitored on HEK cells expressing EGFP-CXCR4 and analyzed by confocal microscopy immediately (0 min, upper panel) after addition of CXCL12, ALB408-423 or both compounds, or 30 min later (lower panel). […]
# [1] = test system: dual tropic (CXCR4 and CCR5 using) variant 92ht593.1; experiment: Infection of TZM-bl cells by dual tropic HIV-1, GalScreen; assay type: cell-based
# Experimental: 5000 TZM-bl cells were seeded in 100 μl of DMEM (10% FCS, 100 U/ml of penicillin G and 100 μg/ml of streptomycin sulfate). ALB408-423 was dissolved in PBS (10 mg/ml). One day later, 20 μl serial dilutions of ALB408-423 in PBS were added to cells and cells were subsequently infected with 0.5 ng of p24 antigen HIV-1 in a total volume of 200 μl. HIV-1 molecular clones differing in coreceptor tropism were used and generated as described (Papkalla et al., J. Virol. 76: 8455-9, 2002).
# FIG. 3: Chemically synthesized ALB408-423 specifically blocks X4 tropic HIV-1 infection. TZM-bl cells containing indicated dilutions of peptide were infected with HIV-1 variants differing in their coreceptor tropism. 3 days later Gal Screen assay was used to measure infection rates. […] B) Infection rates in the presence of 500 μg/ml ALB408-423 showing that the peptide specifically blocks X4 but not R5 tropic HIV-1 infection. Data shown are mean values±standard deviation derived from triplicate infections relative to PBS containing cells (100% infection).
# After 3 days, infection was detected using GalScreen assay (TROPIX) (example 1). […] In contrast, CCR5 tropic HIV-1 variants were not inhibited even in the presence of very high doses of ALB408-423 (500 μg/ml) (FIG. 3B). Due to the specific inhibition of the infection caused by X4-tropic HIV-1 variants, it is to be assumed that ALB408-423 interacts with the chemokine receptor CXCR4.
# Virus stocks were first titrated on TZM-bl cells. Then TZM-bl cells containing 100 μM of peptides were infected with infectivity normalized amounts of X4, dualtropic (X4/R5) or R5 tropic HIV-1.
# FIG. 10. ALB408-423 and truncated ALB derivatives specifically block X4 tropic HIV-1 infection. TZM-bl cells either containing PBS or 100 μM of indicated peptides were infected with normalized infectivities of X4, dualtropic or R5 tropic HIV-1 clones. Infection rates were measured 2 days post infection using the GalScreen assay. Shown are mean values (% of PBS treated control)±standard deviations derived from triplicate measurements.
# X4 tropic HIV-2ROD10 = details: read-out: IC50, X4 tropic HIV-2 infection (Example 5), TZM-bl cells
# Experimental: Two days later infection rates were determined and calculated as described.
# After three days infection rates were determined using the Gal Screen assay. Shown are mean values±standard deviation derived from triplicate measurements.
# CCR5 = molecular target: T1, CCR5 (Homo sapiens, UniProt P51681); experiment: Ca2+ mobilization in HEK CCR5 cells (indo-1); assay type: cell-based; details: 50 μM peptide
# T1 construct: expressed in transfected cells; host or cells: HEK293
# T1 sequence (P51681 whole entry): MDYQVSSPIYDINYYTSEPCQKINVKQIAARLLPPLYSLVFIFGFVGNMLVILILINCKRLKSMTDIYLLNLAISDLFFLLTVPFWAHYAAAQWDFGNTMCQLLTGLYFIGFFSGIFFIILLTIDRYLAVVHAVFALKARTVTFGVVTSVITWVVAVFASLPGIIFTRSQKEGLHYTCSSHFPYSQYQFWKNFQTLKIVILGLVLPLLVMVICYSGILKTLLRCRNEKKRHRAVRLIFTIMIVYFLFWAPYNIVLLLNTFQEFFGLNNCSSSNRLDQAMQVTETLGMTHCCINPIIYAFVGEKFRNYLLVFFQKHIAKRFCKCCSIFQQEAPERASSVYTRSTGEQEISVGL
# Experimental: Ca^2+ responses were recorded.
# FIG. 17. CXCR4 antagonistic activities of ALB derivatives. […] CXCR4 or CCR5 expressing HEK293 cells were treated with CXCR4 agonist CXCL12 (10 nM) or CCR5 agonist CCL5 (20 nM), respectively, in the absence (no ALB) or presence of indicated ALB derivatives (50 μM). Calcium responses were recorded as described. Data shown are mean values±standard deviation derived from duplicates relative to peak calcium responses after treatment with agonists only (100%). […] CXCR4 expressing HEK293 cells were treated with Texas Red labeled CXCL12 (CXCL12-Tr) in the presence or absence of ALB peptides. Real-time fluorescence monitoring of ligand-receptor interactions was carried out as described. Shown are bound CXCL12-Tr levels in the presence of ALB peptides relative to CXCL12-Tr only treated cells (100% bound). Values were derived from a duplicate experiment.
# Chain of CXCR4 (P61073 whole entry): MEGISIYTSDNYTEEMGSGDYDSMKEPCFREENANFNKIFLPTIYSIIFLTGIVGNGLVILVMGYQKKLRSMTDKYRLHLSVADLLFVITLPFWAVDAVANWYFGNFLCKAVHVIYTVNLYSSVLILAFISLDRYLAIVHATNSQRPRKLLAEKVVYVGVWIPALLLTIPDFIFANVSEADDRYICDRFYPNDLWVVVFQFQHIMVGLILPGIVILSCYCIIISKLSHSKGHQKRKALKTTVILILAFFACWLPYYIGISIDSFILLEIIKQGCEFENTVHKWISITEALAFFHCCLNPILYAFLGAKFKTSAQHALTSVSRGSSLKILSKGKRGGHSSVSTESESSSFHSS
sequence,measurement,setting,value
"LVRYTKKVPQVSTPTL [ALB408-423, LVRYTKKVPQVSTPTL]",effect on CXCL12 mediated CXCR4 internalization,CXCR4; 100 nM CXCL12 plus 50 μM peptide,blocked CXCL12 mediated CXCR4 internalization
same,CXCR4 internalization by the peptide alone,CXCR4; 50 μM,did not induce internalization of the receptor
same,inhibition of dualtropic HIV-1 clone 92ht593.1,[1]; 100 μM peptide,only moderately
same,inhibition of dual tropic variant 92ht593.1,"[1]; serial dilutions, compared with X4 tropic variants",blocked less efficiently
same,IC50,X4 tropic HIV-2ROD10,10 to 20 µM
same,effect on CCL5-evoked calcium responses,CCR5; HEK CCR5 cells,no effect
same,"agonism: calcium response induced by the peptide alone, CCR5",CCR5; no chemokine,does not induce any calcium response

# — patent US9045563B2, “CXC chemokine receptor 4 (CXCR4) antagonistic polypeptide” (priority 2007, dated 2015)
